Key:
[1] = parameters: method as in PMID 34959693, PMID 33916370; settings: previous studies, ref [5],[14]; cited from earlier work
[2] = tested on: Wnt/β-catenin pathway target genes in T98G cells; experiment: qPCR of β-catenin and Wnt target genes, T98G; type: cell-based, human; settings: 48 h, mRNA vs DMSO control, single agent
Experimental: (§1) Based on the MTT test, the lichen secondary metabolite concentrations allowing the survival of more than 70% of cells were chosen for the subsequent experiments. The compounds were added as follows: A-172 cells—atranorin 25 µM, caperatic acid 50 µM, physodic acid 25 µM, squamatic acid 25 µM, salazinic acid 50 µM, and lecanoric acid 100 µM; T98G cells—atranorin 50 µM, caperatic acid 100 µM, physodic acid 25 µM, squamatic acid 50 µM, salazinic acid 100 µM, and lecanoric acid 100 µM; U-138 MG cells—atranorin 25 µM, caperatic acid 50 µM, physodic acid 25 µM, squamatic acid 50 µM, salazinic acid 50 µM, and lecanoric acid 100 µM. As far as the TMZ treatment is concerned, it was added in the concentrations depending on the MGMT expression and methylation status, i.e., TMZ 30 µM was added to the A-172 cell line, and TMZ 100 µM was added to both the T98G and U-138 MG cell lines. In the case of the 2D culture, the cells were treated with the compounds 24 h after seeding, whereas, in regard to 3D culture, 5 days were needed to form spheroids. All subsequent analyses were performed 48 h after treatment.
(§2) The Universal RNA Purification Kit (EURx, Gdańsk, Poland) was used for total RNA isolation from the A-172, T98G, and U-138 MG cells, and the Revert-Aid First Strand cDNA Synthesis kit (Fermentas, Burlington, ON, Canada) was chosen for cDNA synthesis. Quantitative real-time PCR (qPCR) was performed using Hot FIREPol EvaGreen qPCR Mix Plus (Solis Biodyne, Tartu, Estonia) and LightCycler 96 (Roche Diagnostics GmbH, Mannheim, Germany). Primer sequences were previously published and their synthesis was performed at the Institute of Biochemistry and Biophysics, Warsaw, Poland. The protocol started with 15 min enzyme activation at 95 °C, followed by 40 cycles of 95 °C for 15 s; appropriate annealing temperature for 20 s; 72 °C for 40 s and the final elongation at 72 °C for 5 min. Melting curve analysis was used to confirm the generation of a single amplification product. TATA box-binding protein (TBP), a component of the DNA-binding protein complex TFIID, served as the endogenous RNA control. The results were expressed as N-fold differences in the gene expression relative to the TBP gene. The ΔΔCt method was used for fold-change calculation. All samples were analyzed in triplicate, and the reaction was repeated at least twice.

[3] = tested on: Wnt/β-catenin pathway target genes in A-172 cells; experiment: qPCR of β-catenin and Wnt target genes, A-172; type: cell-based, human; settings: A-172, 48 h
Experimental: as §1, §2

[4] = Parallel artificial membrane permeability assay for the blood-brain barrier (PAMPA-BBB); type: in vitro ADME; settings: pH 7.4, 4 h, 37 °C, mean ± SEM, n = 3, Pe > 1.5 high, < 1.5 low permeation predicted, read-out: Pe × 10^−6
Experimental: The parallel artificial membrane permeability assay (PAMPA) for the blood-brain barrier (BBB) (Pion Inc., Billerica, MA, USA) was used to analyze whether the lichen secondary metabolites tested in this study were able to cross the BBB. The stock solutions (5 mg/mL) of tested compounds were prepared using DMSO. Next, the donor solution (24.75 μg/mL) using Prisma buffer (pH = 7.4; Prisma HT, Pion Inc., Billerica, MA, USA) were made. Firstly, 180 μL of the donor solution were added to the donor wells. Then the filter membranes were coated with 5 μL BBB-1 lipid solution (Pion Inc., Billerica, MA, USA) and the acceptor wells were filled with 200 μL BSB (Brain Sink Buffer, Pion Inc., Billerica, MA, USA). The plates were sandwiched together and incubated for 4 h at 37 °C (Thermo Scientific MaxQ 4450, Waltham, MA, USA). The results were determined by spectroscopic analysis (Multiskan GO microplate reader, Waltham, MA, USA), with the appropriate wavelength for a given compound (240 nm for […] salazinic acid, 250 nm for atranorin and squamatic acid, 263 nm for physodic acid, and 270 nm for lecanoric acid). […] Pe is the effective permeability coefficient (cm/s), VD-donor volume, VA-acceptor volume, Ceq-equilibrium concentration, Ceq=CD×VD+CA×VA/VD+VA , S-membrane area, and t-incubation time (in seconds). […] Samples were analyzed in triplicate, and the average was reported.

[5] = tested on: U-138 MG cells; parameters: method as in PMID 33916370; settings: taken from the literature, ref [14]; read-out: IC50 [uM] ± SEM U-138 MG; cited from earlier work
[6] = tested on: T98G cells; experiment: ROS (superoxide) generation, flow cytometry, T98G; type: cell-based, human; settings: 48 h
Experimental: (§3) Based on the MTT test, the lichen secondary metabolite concentrations allowing the survival of more than 70% of cells were chosen for the subsequent experiments. The compounds were added as follows: A-172 cells—atranorin 25 µM, caperatic acid 50 µM, physodic acid 25 µM, squamatic acid 25 µM, salazinic acid 50 µM, and lecanoric acid 100 µM; T98G cells—atranorin 50 µM, caperatic acid 100 µM, physodic acid 25 µM, squamatic acid 50 µM, salazinic acid 100 µM, and lecanoric acid 100 µM; U-138 MG cells—atranorin 25 µM, caperatic acid 50 µM, physodic acid 25 µM, squamatic acid 50 µM, salazinic acid 50 µM, and lecanoric acid 100 µM. […]
The intracellular detection of superoxide radicals was detected by flow cytometric analysis after the staining with dihydroethidium, using The Muse® Oxidative Stress Kit (Merck, Darmstadt, Germany). Briefly, 100,000 cells per well were seeded on 6-well plates and after a 24 h incubation they were treated with the analyzed lichen secondary metabolites in the concentrations allowing >70% of cell survival; cells treated with DMSO were used as the negative control. […] The obtained data were evaluated using Muse® Analysis Software ver. […]

[7] = tested on: T98G cells; experiment: Apoptosis, caspase-3/7 and 7-AAD flow cytometry, T98G; type: cell-based, human
Experimental: as §1
(§4) The fluorescent-based analysis of apoptosis using Muse® Caspase-3/7 Kit was performed in order to analyze the percentage of live, early, and late apoptotic; total apoptotic; and dead cells in A-172, T98G, and U-138 MG GBM cells treated with lichen secondary metabolites. The principle of the method relies on the measurement of the activity of executioner caspases, i.e., caspase-3 and caspase-7, as well as analyzing the integrity of the cell membrane with the use of a dead cell marker 7-AAD. Cell seeding and treatment followed the same protocol as for cell cycle or ROS generation analysis, while the subsequent procedures were performed according to the manufacturer’s recommendations.

[8] = tested on: U-138 MG cells; experiment: Apoptosis, caspase-3/7 and 7-AAD flow cytometry, U-138 MG; type: cell-based, human; settings: 48 h
Experimental: as §1, §4

[9] = tested on: Wnt/β-catenin pathway target genes in U-138 MG cells; experiment: qPCR of β-catenin and Wnt target genes, U-138 MG; type: cell-based, human; settings: 48 h; for NEDD9 expression: TMZ 100 µM
Experimental: as §1, §2

[10] = tested on: A-172 cells; settings: taken from the literature, ref [14]; read-out: IC50 [uM] ± SEM A-172; cited from earlier work
[11] = tested on: A375 melanoma cancer cells; parameters: method as in PMID 28012710; settings: ref [33]; cited from earlier work
[12] = tested on: T98G cells; settings: taken from the literature, ref [14]; read-out: IC50 [uM] ± SEM T98G; cited from earlier work
[13] = tested on: T98G cells-derived spheroids; experiment: Microarray expression study of T98G spheroids; type: cell-based, human; settings: 48 h, TMZ 100 µM, FC > abs. 2
Experimental: Moreover, the 3D culture of the T98G cell line was also established. The cells were cultured in ultra-low attachment microplates (Corning®, Corning, NY, USA) (1000 cell per well) to form spheroids. The standard medium was supplemented with Corning® Matrigel® Matrix for Organoid Culture (3.5%) (Corning®, Corning, NY, USA) and epidermal growth factor—EGF (10 ng/mL) (Stemcell Technologies, Vancouver, BC, Canada). Both 2D and 3D cell cultures were grown in a standard humidified incubator (Memmert, Schwabach, Germany) at 37 °C in 5% CO2 and 95% air atmosphere.
as §3
The obtained CEL files were further analyzed using the R statistical language and Bioconductor package, including the relevant Bioconductor libraries. […]

[14] = mRNA vs DMSO control, single agent, (TMZ 30 µM)
[15] = mRNA vs DMSO control, single agent

## CC(=O)C1=C(O)C=C2Oc3c(C(C)=O)c(O)c(C)c(O)c3[C@]2(C)C1=O [(−)-usnic acid]
[1]
  ability to cross the blood-brain barrier: can cross the blood-brain barrier

## Cn1ncnc2c(=O)n(C)c(=O)nc1-2 [PKF118-310, reference compound]
[2]
  c-MYC expression: did not diminish
[2]; TMZ 100 µM
  BIRC5 expression: downregulated
[3]; [14]
  c-MYC expression: did not diminish

## CCCCCC(=O)Cc1cc(O)cc2c1C(=O)Oc1cc(O)c(C(=O)O)c(CCCCC)c1O2 [Physodic acid]
[2]
  c-MYC expression: downregulated
[2]; TMZ 100 µM
  BIRC5 expression: downregulated
[1]
  ability to cross the blood-brain barrier: can cross the blood-brain barrier
[4]
  Papp at 4 h, 24.75 µg/mL: 3.9 ± 0.2 ×10⁻⁶ cm/s
[5]
  IC50: 45.7 ± 4.2 µM
[6]
  oxidative stress (superoxide) induction: induce oxidative stress
[7]; 48 h, topotecan 100 nM
  number of apoptotic cells vs control: significant increase
[7]; 48 h treatment
  apoptotic cells detected: ~80%
[8]
  effect on apoptosis: anti-apoptotic effect
[9]; co-treatment with TMZ 100 µM
  expression of the Wnt target genes: huge downregulatory effect
[9]; [15]
  Axin2 expression: decreased
  CCND1 expression: downregulated CCND1 expression by around half
  NEDD9 expression: upregulated
[10]
  IC50: 42.4 ± 1.25 µM
[11]
  apoptosis induction: activated an apoptotic process
[3]; co-treatment with TMZ 30 µM
  CCND1 expression: upregulation
[3]; [15]
  NEDD9 expression: downregulated
[12]
  IC50: 50.6 ± 1.09 µM

## Cn1nnc2c(C(N)=O)ncn2c1=O [TMZ, temozolomide]
[2]; TMZ 100 µM
  Axin2 expression: downregulation
  BIRC5 expression: downregulation
[9]; [15]
  NEDD9 expression: downregulated
[3]; [14]
  Axin2 expression: upregulated
  c-MYC expression: upregulated
[13]
  number of significantly downregulated genes vs control: 46
  number of significantly upregulated genes vs control: 15

## COc1cc(C)c(C(=O)Oc2cc(C)c(C(=O)O)c(O)c2)c(O)c1 [evernic acid]
[1]
  ability to cross the blood-brain barrier: can cross the blood-brain barrier

Source: paper PMC8997913, “Lichen Secondary Metabolites Inhibit the Wnt/β-Catenin Pathway in Glioblastoma Cells and Improve the Anticancer Effects of Temozolomide” (Cells, 2022)
